Measured values reported in the supplement of paper PMC10307832.

Assays:
Assay in all cases: relative viability (nuclei count vs DMSO), 5 days (fraction); higher = more cells survive
ChaGo-K-1 = tested on: ChaGo-K-1
In short: (§1)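 Relative viability equals treated-well nuclei counts divided by vehicle-well nuclei counts. Counts came from 4× images of lung cancer cell lines grown in 1536-well plates for 5 days after pin-tool dosing on the day after seeding. Dosing used one drug alone or a fixed anchor-drug dose plus five library-drug doses (not always all listed) in √10 steps, and values are medians of duplicate plates.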

EKVX = tested on: EKVX
In short: as §1

EMC-BAC-2 = tested on: EMC-BAC-2
In short: as §1

EPLC-272H = tested on: EPLC-272H
In short: as §1

HCC-78 = tested on: HCC-78
In short: as §1

HCC-827 = tested on: HCC-827
In short: as §1

LCLC-103H = tested on: LCLC-103H
In short: as §1

LK-2 = tested on: LK-2
In short: as §1

LU99A = tested on: LU99A
In short: as §1

NCI-H1563 = tested on: NCI-H1563
In short: as §1

NCI-H1666 = tested on: NCI-H1666
In short: as §1

NCI-H1975 = tested on: NCI-H1975
In short: as §1

NCI-H2126 = tested on: NCI-H2126
In short: as §1

NCI-H2342 = tested on: NCI-H2342
In short: as §1

NCI-H23 = tested on: NCI-H23
In short: as §1

NCI-H2405 = tested on: NCI-H2405
In short: as §1

NCI-H322M = tested on: NCI-H322M
In short: as §1

PC-14 = tested on: PC-14
In short: as §1

RERF-LC-KJ = tested on: RERF-LC-KJ
In short: as §1

SK-LU-1 = tested on: SK-LU-1
In short: as §1

SW 1573 = tested on: SW 1573
In short: as §1

SW 900 = tested on: SW 900
In short: as §1

Nc1ccn([C@@H]2O[C@H](CO)[C@@H](O)[C@@H]2O)c(=O)n1 [Cytarabine] + Cc1nc(Nc2ncc(C(=O)Nc3c(C)cccc3Cl)s2)cc(N2CCN(CCO)CC2)n1 [Dasatinib] (partner 0.075 µM)
relative viability (ChaGo-K-1; first compound 0.005 µM): 0.518 | relative viability (ChaGo-K-1; first compound 0.01581 µM): 0.347 | relative viability (ChaGo-K-1; first compound 0.05 µM): 0.384 | relative viability (ChaGo-K-1; first compound 0.1581 µM): 0.182 | relative viability (ChaGo-K-1; first compound 0.5 µM): 0.184 | relative viability (EKVX; first compound 0.005 µM): 0.567 | relative viability (EKVX; first compound 0.01581 µM): 0.416 | relative viability (EKVX; first compound 0.05 µM): 0.456 | relative viability (EKVX; first compound 0.1581 µM): 0.357 | relative viability (EKVX; first compound 0.5 µM): 0.273 | relative viability (EMC-BAC-2; first compound 0.005 µM): 0.344 | relative viability (EMC-BAC-2; first compound 0.01581 µM): 0.278 | relative viability (EMC-BAC-2; first compound 0.05 µM): 0.203 | relative viability (EMC-BAC-2; first compound 0.1581 µM): 0.154 | relative viability (EMC-BAC-2; first compound 0.5 µM): 0.113 | relative viability (EPLC-272H; first compound 0.005 µM): 0.304 | relative viability (EPLC-272H; first compound 0.01581 µM): 0.241 | relative viability (EPLC-272H; first compound 0.05 µM): 0.211 | relative viability (EPLC-272H; first compound 0.1581 µM): 0.113 | relative viability (EPLC-272H; first compound 0.5 µM): 0.0979 | relative viability (HCC-78; first compound 0.005 µM): 0.585 | relative viability (HCC-78; first compound 0.01581 µM): 0.363 | relative viability (HCC-78; first compound 0.05 µM): 0.27 | relative viability (HCC-78; first compound 0.1581 µM): 0.228 | relative viability (HCC-78; first compound 0.5 µM): 0.208 | relative viability (HCC-827; first compound 0.005 µM): 0.445 | relative viability (HCC-827; first compound 0.01581 µM): 0.397 | relative viability (HCC-827; first compound 0.05 µM): 0.4 | relative viability (HCC-827; first compound 0.1581 µM): 0.226 | relative viability (HCC-827; first compound 0.5 µM): 0.227 | relative viability (LCLC-103H; first compound 0.005 µM): 0.449 | relative viability (LCLC-103H; first compound 0.01581 µM): 0.507 | relative viability (LCLC-103H; first compound 0.05 µM): 0.486 | relative viability (LCLC-103H; first compound 0.1581 µM): 0.353 | relative viability (LCLC-103H; first compound 0.5 µM): 0.445 | relative viability (LK-2; first compound 0.005 µM): 0.309 | relative viability (LK-2; first compound 0.01581 µM): 0.27 | relative viability (LK-2; first compound 0.05 µM): 0.236 | relative viability (LK-2; first compound 0.1581 µM): 0.157 | relative viability (LK-2; first compound 0.5 µM): 0.163 | relative viability (LU99A; first compound 0.005 µM): 0.563 | relative viability (LU99A; first compound 0.01581 µM): 0.647 | relative viability (LU99A; first compound 0.05 µM): 0.58 | relative viability (LU99A; first compound 0.1581 µM): 0.578 | relative viability (LU99A; first compound 0.5 µM): 0.364 | relative viability (NCI-H1563; first compound 0.005 µM): 0.506 | relative viability (NCI-H1563; first compound 0.01581 µM): 0.466 | relative viability (NCI-H1563; first compound 0.05 µM): 0.46 | relative viability (NCI-H1563; first compound 0.1581 µM): 0.383 | relative viability (NCI-H1563; first compound 0.5 µM): 0.393 | relative viability (NCI-H1666; first compound 0.005 µM): 0.773 | relative viability (NCI-H1666; first compound 0.01581 µM): 0.725 | relative viability (NCI-H1666; first compound 0.05 µM): 0.642 | relative viability (NCI-H1666; first compound 0.1581 µM): 0.396 | relative viability (NCI-H1666; first compound 0.5 µM): 0.394 | relative viability (NCI-H1975; first compound 0.005 µM): 0.329 | relative viability (NCI-H1975; first compound 0.01581 µM): 0.47 | relative viability (NCI-H1975; first compound 0.05 µM): 0.338 | relative viability (NCI-H1975; first compound 0.1581 µM): 0.297 | relative viability (NCI-H1975; first compound 0.5 µM): 0.191 | relative viability (NCI-H2126; first compound 0.005 µM): 0.516 | relative viability (NCI-H2126; first compound 0.01581 µM): 0.55 | relative viability (NCI-H2126; first compound 0.05 µM): 0.429 | relative viability (NCI-H2126; first compound 0.1581 µM): 0.378 | relative viability (NCI-H2126; first compound 0.5 µM): 0.32 | relative viability (NCI-H2342; first compound 0.005 µM): 0.309 | relative viability (NCI-H2342; first compound 0.01581 µM): 0.295 | relative viability (NCI-H2342; first compound 0.05 µM): 0.262 | relative viability (NCI-H2342; first compound 0.1581 µM): 0.257 | relative viability (NCI-H2342; first compound 0.5 µM): 0.277 | relative viability (NCI-H23; first compound 0.005 µM): 0.864 | relative viability (NCI-H23; first compound 0.01581 µM): 0.541 | relative viability (NCI-H23; first compound 0.05 µM): 0.655 | relative viability (NCI-H23; first compound 0.1581 µM): 0.236 | relative viability (NCI-H23; first compound 0.5 µM): 0.187 | relative viability (NCI-H2405; first compound 0.005 µM): 0.206 | relative viability (NCI-H2405; first compound 0.01581 µM): 0.17 | relative viability (NCI-H2405; first compound 0.05 µM): 0.167 | relative viability (NCI-H2405; first compound 0.1581 µM): 0.144 | relative viability (NCI-H2405; first compound 0.5 µM): 0.146 | relative viability (NCI-H322M; first compound 0.005 µM): 0.259 | relative viability (NCI-H322M; first compound 0.01581 µM): 0.272 | relative viability (NCI-H322M; first compound 0.05 µM): 0.26 | relative viability (NCI-H322M; first compound 0.1581 µM): 0.243 | relative viability (NCI-H322M; first compound 0.5 µM): 0.274 | relative viability (PC-14; first compound 0.005 µM): 0.232 | relative viability (PC-14; first compound 0.01581 µM): 0.234 | relative viability (PC-14; first compound 0.05 µM): 0.18 | relative viability (PC-14; first compound 0.1581 µM): 0.0381 | relative viability (PC-14; first compound 0.5 µM): 0.0648 | relative viability (RERF-LC-KJ; first compound 0.005 µM): 0.689 | relative viability (RERF-LC-KJ; first compound 0.01581 µM): 0.646 | relative viability (RERF-LC-KJ; first compound 0.05 µM): 0.524 | relative viability (RERF-LC-KJ; first compound 0.1581 µM): 0.409 | relative viability (RERF-LC-KJ; first compound 0.5 µM): 0.281 | relative viability (SK-LU-1; first compound 0.005 µM): 0.179 | relative viability (SK-LU-1; first compound 0.01581 µM): 0.157 | relative viability (SK-LU-1; first compound 0.05 µM): 0.17 | relative viability (SK-LU-1; first compound 0.5 µM): 0.147 | relative viability (SW 1573; first compound 0.005 µM): 0.34 | relative viability (SW 1573; first compound 0.01581 µM): 0.333 | relative viability (SW 1573; first compound 0.05 µM): 0.381 | relative viability (SW 1573; first compound 0.1581 µM): 0.122 | relative viability (SW 1573; first compound 0.5 µM): 0.089 | relative viability (SW 900; first compound 0.005 µM): 0.837 | relative viability (SW 900; first compound 0.01581 µM): 0.446 | relative viability (SW 900; first compound 0.05 µM): 0.314
